Test results: US9322066B2, “Predictors for cancer treatment” (priority 2011, dated 2016)

Tested on: relapsed or refractory, rituximab-naive or -sensitive follicular B-cell NHL
Experiment: Progression-free survival (PFS), Vc-R vs rituximab study, by biomarker
Assay type: in vivo, human
Source text: Non-Hodgkin lymphoma (NHL) encompasses several unique malignant lymphoid disease entities that vary in clinical behavior, morphologic appearance, immunologic, and molecular phenotype. […] A randomized, open-label, active-controlled, multicenter, multinational, prospective study to compare the efficacy and safety of the combination of bortezomib and rituximab (Vc-R) to single-agent rituximab in subjects who have relapsed or refractory, rituximab-naive or -sensitive follicular B-cell NHL was performed.
Subjects were centrally randomized to Treatment Groups A (Vc-R) or B (rituximab) in a 1:1 ratio taking into account the following stratification factors: • Follicular Lymphoma International Prognostic Index (FLIPI) score (low [0 or 1 factor], intermediate [2 factors], high [≧3 factors]); • Prior rituximab therapy (yes, no); • Time since last dose of anti-lymphoma therapy (≦1 year, >1 year); • Region (United States/Canada, European Union, Rest of World).
The following clinical endpoints were included in the analysis within each treatment group and an overall comparison was made with the biomarker-related endpoints: Progression-free survival, defined as the interval between the date of randomization and the date of progressive disease (PD) or death, whichever is first reported in the ITT population; overall survival; overall response rate (complete response [CR]+CR unconfirmed [CRu]+partial response [PR]); overall CR rate (CR+CRu); duration of response; time to next anti-lymphoma therapy; and treatment free interval.
For single-marker association analyses and pair-wise comparisons, a log rank test and Cox proportional hazard model was utilized for assessments of PFS, TTP, and OS between the treatment groups. Kaplan-Meier curves were utilized to estimate the distribution differences between groups in the time-to-event analyses. Comparison of the response rates between the treatment groups was conducted using the Fishers exact test. Single-marker association analyses were stratified by the covariates.
For pair-wise comparison analysis, biomarker pairs were formed by combinations of two markers. A log rank test was utilized for assessments of PFS, TTP, and OS between the treatment groups in the subpopulation defined by biomarker pairs. Kaplan-Meier curves were utilized to estimate the distribution differences between groups in the time-to-event analyses. Comparison of the response rates between the treatment groups was conducted using the Fishers exact test. Methods of Analysis for the multiple biomarker comparison models can be found in section 4.6.
The stratified log rank test and Cox proportional hazard model was utilized for assessments of PFS between the treatment groups. The Kaplan-Meier method was to be used to estimate the distribution of overall PFS for each treatment group in the biomarker population, and overall; stratified by expression level, SNP, or mutation (or covariate groups as noted above). The hazard ratio and 95% confidence interval was based on a stratified Cox's proportion hazard model with treatment as the explanatory variable. Analyses were done for the population overall and by treatment group, and each of these analyses were also stratified by the following factors if sufficient sample size existed: […]

## rituximab
PSMB1/P11A C/G + P65 % POSITIVE CYTOPLASMIC SIGNAL >90%, Excluded
  Median PFS (Vc-R vs R): 348 days
PSMB1/P11A C/G + P65 % POSITIVE CYTOPLASMIC SIGNAL >90%, Selected
  Median PFS (Vc-R vs R): 278 days
PSMB1/P11A C/G + P65 % POSITIVE CYTOPLASMIC SIGNAL >90%, Total
  Median PFS (Vc-R vs R): 338 days
PSMB1/P11A C/G + PSMB9/R60H G/G, Excluded
  Median PFS (Vc − R vs R): 346 days
PSMB1/P11A C/G + PSMB9/R60H G/G, Selected
  Median PFS (Vc − R vs R): 288 days
PSMB1/P11A C/G + PSMB9/R60H G/G, Total
  Median PFS (Vc − R vs R): 345 days
PSMB1/P11A G/G + PSMB5/R24C C/T, Excluded
  Median PFS (Vc-R vs R): 345 days
PSMB1/P11A G/G + PSMB5/R24C C/T, Selected
  Median PFS (Vc-R vs R): 237.5 days
PSMB1/P11A G/G + PSMB5/R24C C/T, Total
  Median PFS (Vc-R vs R): 345 days
PSMB5/R24AC C/C + 20S % NUCLEAR STAINING 30-90, Excluded
  Median PFS (Vc − R vs R): 346 days
PSMB5/R24C C/C + 20S % NUCLEAR STAINING 30-90, Selected
  Median PFS (Vc − R vs R): 281 days
PSMB5/R24C C/C + 20S % NUCLEAR STAINING 30-90, Total
  Median PFS (Vc − R vs R): 345 days
PSMB5/R24C C/T
  PFS median: 9.3 mo
PSMB5/R24C C/T & CD68 POSITIVE FOLLICULAR: 0-50
  PFS median: 7.2 mo
PSMB5/R24C C/T & P65 INTENSITY CYTOPLASMIC SIGNAL <=1+
  PFS median: 10.4 mo
PSMB5/R24C C/T + CD68 POSITIVE FOLLICULAR 0-50, Total
  Median PFS (Vc-R vs R): 345 days
PSMB9/R60H A/G + 20S % POSITIVE CYTOPLASMIC SIGNAL 95-100, Excluded
  Median PFS (Vc-R vs R): 347 days
PSMB9/R60H A/G + 20S % POSITIVE CYTOPLASMIC SIGNAL 95-100, Selected
  Median PFS (Vc-R vs R): 273 days
PSMB9/R60H A/G + 20S % POSITIVE CYTOPLASMIC SIGNAL 95-100, Total
  Median PFS (Vc-R vs R): 345 days
PSMB9/R60H A/G + CD68 OVERALL POSITIVE 0-50, Excluded
  Median PFS (Vc − R vs R): 349 days
PSMB9/R60H A/G + CD68 OVERALL POSITIVE 0-50, Selected
  Median PFS (Vc − R vs R): 273 days
PSMB9/R60H A/G + CD68 OVERALL POSITIVE 0-50, Total
  Median PFS (Vc − R vs R): 345 days
PSMB9/R60H A/G + CD68 POSITIVE FOLLICULAR 0-50, Excluded
  Median PFS (Vc-R vs R): 349 days
PSMB9/R60H A/G + CD68 POSITIVE FOLLICULAR 0-50, Selected
  Median PFS (Vc-R vs R): 273 days
PSMB9/R60H A/G + CD68 POSITIVE FOLLICULAR 0-50, Total
  Median PFS (Vc-R vs R): 345 days
PSMB9/R60H G/G & P65 % NUCLEAR STAINING: >0
  PFS median: 9.5 mo
PSMB9/R60H G/G + 20S % NUCLEAR STAINING 30-90, Excluded
  Median PFS (Vc − R vs R): 345 days
PSMB9/R60H G/G + 20S % NUCLEAR STAINING 30-90, Selected
  Median PFS (Vc-R vs R): 280 days
PSMB9/R60H G/G + 20S % NUCLEAR STAINING 30-90, Total
  Median PFS (Vc − R vs R): 345 days
Prior RX: 1 & CD68 POSITIVE FOLLICULAR: 0-50
  PFS median: 9.3 mo
Prior Ritutux NO & CD68 POSITIVE FOLLICULAR: 0-50
  PFS median: 9.2 mo
Race Group OTHER & 20S % NUCLEAR STAINING: >20
  PFS median: 3.8 mo
SEX MALE + 20S % NUCLEAR STAINING 30-90, Excluded
  Median PFS (Vc-R vs R): 357 days
SEX MALE + 20S % NUCLEAR STAINING 30-90, Selected
  Median PFS (Vc-R vs R): 235 days
SEX MALE + 20S % NUCLEAR STAINING 30-90, Total
  Median PFS (Vc-R vs R): 345 days
SEX MALE + P65 % POSITIVE CYTOPLASMIC SIGNAL >90%, Excluded
  Median PFS (Vc − R vs R): 375 days
SEX MALE + P65 % POSITIVE CYTOPLASMIC SIGNAL >90%, Selected
  Median PFS (Vc − R vs R): 271 days
SEX MALE + P65 % POSITIVE CYTOPLASMIC SIGNAL >90%, Total
  Median PFS (Vc − R vs R): 345 days
Selected: 20S % NUCLEAR STAINING 30-90 and P65 % POSITIVE CYTOPLASMIC SIGNAL >90%
  Median PFS (Vc-R vs R): 277 days
Selected: AGEGRP <=65 and CD68 OVERALL POSITIVE 0-50
  Median PFS (Vc-R vs R): 279 days
Selected: AGEGRP <=65 and P65 % POSITIVE CYTOPLASMIC SIGNAL >90%
  Median PFS (Vc-R vs R): 277 days
Selected: CD68 OVERALL POSITIVE 0-50 and P65 % POSITIVE C[…] >90%
  Median PFS (Vc-R vs R): 279 days
Selected: FLIPI High and P65 % POSITIVE CYTOPLASMIC SIGNAL >90%
  Median PFS (Vc-R vs R): 212 days
Selected: PRITUX NO and P65 % NUCLEAR STAINING 0
  Median PFS (Vc-R vs R): 287 days
Selected: PSMB1/P11A C/G and ANNARBOR >=III
  Median PFS (Vc-R vs R): 275 days
Selected: PSMB1/P11A C/G and P65 % NUCLEAR STAINING 0
  Median PFS (Vc-R vs R): 279 days
Sex MALE & 20S % NUCLEAR STAINING: >20
  PFS median: 7.7 mo
TLAST >1 year + CD68 POSITIVE FOLLICULAR 0-50, Excluded
  Median PFS (Vc-R vs R): 288 days
TLAST >1 year + CD68 POSITIVE FOLLICULAR 0-50, Selected
  Median PFS (Vc-R vs R): 357 days
TLAST >1 year + CD68 POSITIVE FOLLICULAR 0-50, Total
  Median PFS (Vc-R vs R): 346 days
TLAST >1 year + P65 % POSITIVE CYTOPLASMIC SIGNAL >90%, Excluded
  Median PFS (Vc − R vs R): 280 days
TLAST >1 year + P65 % POSITIVE CYTOPLASMIC SIGNAL >90%, Selected
  Median PFS (Vc − R vs R): 357 days
TLAST >1 year + P65 % POSITIVE CYTOPLASMIC SIGNAL >90%, Total
  Median PFS (Vc − R vs R): 345 days
Total biomarker evaluable, N = 356
  PFS median: 11.3 months
Total: 20S % NUCLEAR STAINING 30-90 and P65 % POSITIVE CYTOPLASMIC SIGNAL >90%
  Median PFS (Vc-R vs R): 345 days
Total: AGEGRP <=65 and CD68 OVERALL POSITIVE 0-50
  Median PFS (Vc-R vs R): 345 days
Total: AGEGRP <=65 and P65 % POSITIVE CYTOPLASMIC SIGNAL >90%
  Median PFS (Vc-R vs R): 345 days
Total: CD68 OVERALL POSITIVE 0-50 and P65 % POSITIVE C[…] >90%
  Median PFS (Vc-R vs R): 345 days
Total: FLIPI High and P65 % POSITIVE CYTOPLASMIC SIGNAL >90%
  Median PFS (Vc-R vs R): 345 days
Total: PRITUX NO and P65 % NUCLEAR STAINING 0
  Median PFS (Vc-R vs R): 345 days
Total: PSMB1/P11A C/G and ANNARBOR >=III
  Median PFS (Vc-R vs R): 345 days
Total: PSMB1/P11A C/G and P65 % NUCLEAR STAINING 0
  Median PFS (Vc-R vs R): 338 days
Confirmation cohort 1 (excludes China; n=106), biomarker positive
  PFS: 9.5 months
Confirmation cohort 2 (includes China subjects and subjects with missing data), biomarker positive
  median PFS: 9.5 months
Discovery cohort, CD68 Low and PSMB P11A
  PFS: 8.5 months
Subjects with PSMB1 P11A (C/G)
  median PFS: 9.5 months
Subjects with higher CD68 expression
  median PFS: 16.2 months
Subjects with low CD68 (0-50)
  median PFS: 9.3 months
